Measured values from patent US9440980B2, “Remedy for diabetes” (EA Pharma Co., Ltd., priority 2007, dated 2016).

How the values were obtained:
isolated adipocytes = experiment: Measurement of glucose uptake activity in isolated rat adipocytes (2-[14C]-deoxy-D-glucose); type: cell-based; conditions: Adipocyte, glucose uptake of insulin (100 nM) = 100%
Method: A male Wistar rat was decapitated and exsanguinated, and then a paratesticular adipose tissue was resected therefrom after laparotomy. The tissue was cut in a KRH (Krebs-Ringer HEPES: 130 mM NaCl, 4.7 mM KCl, 1.2 mM KH2PO4, 1.2 mM MgSO4, 1 mM CaCl2, 25 mM HEPES) containing a BSA (bovine serum albumin), a collagenase (type I) was added thereto, and the resultant was subjected to a digestive treatment for about 40 minutes to obtain isolated adipocytes. The buffer was replaced to remove the collagenase, and a 2% BSA/KRH solution was added thereto, whereby the adipocytes were floated again to obtain a adipocytes suspension.
The glucose uptake activity of a test substance compound was evaluated in accordance with Non-Patent Document 14: Simpson et al., Annual Review of Biochemistry, 55, 1059, (1986). Thus, 200 μl of the adipocytes suspension was dispensed into each polystyrene test tube, 100 μl of a solution containing the test substance compound was added thereto, and the test tube was shaken and incubated at 37° C. for 30 minutes. The glucose uptake activity was evaluated by measuring the amount of 2-[^14C(U)]-deoxy-D-glucose uptaken per unit time. Thus, the 2-[^14C(U)]-deoxy-D-glucose was added to the preincubated adipocytes suspension at the final concentration of 0.5 μCi/sample, and after 5 minutes, cytochalasin B was added thereto at the final concentration of 10 μM to stop the glucose uptake. Dinonyl phthalate was superposed over the solution, the resultant was centrifuged to separate the fat cells from the buffer, and the amount of the 2-[^14C(U)]-deoxy-D-glucose contained in the fat cell layer was measured by a liquid scintillation counter, whereby the uptaken glucose amount was determined. The glucose uptake of insulin (100 nM) was evaluated in the same manner and considered to be 100%, and thus the EC50 value of each compound was obtained.

[1] = test system: PI3-kinase α (p110α/p85α); experiment: PI3-kinase subtype activity in the presence of Gβ1γ2-Myc (PIP3 production, 32P-ATP, TLC); type: biochemical; conditions: 30 μM, FIG. 13
Method: The subtypes α (PI3 Kinase (p110α/p85α), active, Upstate, Product No. 14-602), β (PI3 Kinase (p110β/p85α), active, Upstate, Product No. 14-603), γ ((PI3KγHis-GST (Phosphoinositide 3-kinase p110γHis/p101GST) human, Recombinant, Sf9 insect cell, JENA Bioscience, Product No. PR-347S), and δ (PI3 Kinase (p110δ/p85α), active, Upstate, Product No. 14-604) were used as the PI3-kinase subtypes respectively. A PI3K buffer (40 mM HEPES-Na (pH 7.4), 120 mM NaCl, 1 mM EGTA, 1 mM dithiothreitol, 1 mM β glycerophosphoric acid, 10 mM MgCl2, 0.1% BSA) was used as a buffer in the following reactions.
A mixture liquid of phosphatidylethanolamine (0.256 μmol), phosphatidylserine (0.24 μmol), phosphatidylcholine (0.112 μmol), sphingomyelin (0.024 μmol), and phosphatidylinositol-[4,5]-bisphosphate (0.032 μmol) was added to a glass tube and dried by argon gas, and to this was added the PI3K buffer (0.27 ml) at ice temperature. This solution was ultrasonic-treated in ice to prepare a lipid micelle solution. […] The data were analyzed by a software of BAS2000, the analysis region was controlled such that spots of phosphatidylinositol-[3,4,5]-trisphosphate (PIP3) in the TLC lanes have the same areas, and the energy (PSL) corresponding to each radioactivity was quantified in the region.

HLF cell membrane = experiment: Binding assay of 3H-labeled Compound 1 using HLF cell membrane; design: species or system human; conditions: 3H-labeled Compound 1, calculated by Scatchard plot
Method: A cell membrane of a human liver-derived HLF cell was prepared as follows. HLF cells were approximately confluently cultured in a Dulbecco MEM medium containing 10% FCS in a cell culture dish having a diameter of 15 cm. The HLF cells cultured in 30 dishes were scraped by a cell scraper in the presence of an HMEE buffer (20 mM HEPES-KOH, 1 mM EDTA, 1 mM EGTA, and 2 mM MgCl2) to obtain about 30 ml of a cell suspension. The suspension was homogenized using a TEFLON (registered trademark) homogenizer (ice temperature, 1000 rpm, 15 stroke) and centrifuged at a low rate (1500 rpm, 5 minutes). […]
The binding assay of the ^3H-labeled Compound 1 on thus obtained cell membrane was carried out as follows. […] The filter plate was well washed with a TBS (20 mM Tris-HCl, 0.15 M NaCl, pH 7.4) containing 0.05% Twee-20 and sufficiently dried, 30 μl of a liquid scintillator (Microscinti 0, Packard) was added to the filter plate, and the ^3H count was measured by Topcount (Packard). […]
The inhibitory activity of each of the probe molecule compounds synthesized in Examples 2 and 7 to 10 against the binding of the ^3H-labeled Compound 1 to the HLF cell membrane was measured by the method described in Example 14 to confirm whether the probe compound could be bound to the binding protein like Compound 1. […]

[2] = target: T1, PI3-kinase β in the presence of Gβ1γ2-His (Homo sapiens, UniProt P42338+P62873); experiment: PI3-kinase β activation assay in the presence of Gβ1γ2-His (scintillation counting); type: biochemical; conditions: FIG. 17
T1 construct: purchased Upstate 14-603
T1 sequence (P42338 whole entry): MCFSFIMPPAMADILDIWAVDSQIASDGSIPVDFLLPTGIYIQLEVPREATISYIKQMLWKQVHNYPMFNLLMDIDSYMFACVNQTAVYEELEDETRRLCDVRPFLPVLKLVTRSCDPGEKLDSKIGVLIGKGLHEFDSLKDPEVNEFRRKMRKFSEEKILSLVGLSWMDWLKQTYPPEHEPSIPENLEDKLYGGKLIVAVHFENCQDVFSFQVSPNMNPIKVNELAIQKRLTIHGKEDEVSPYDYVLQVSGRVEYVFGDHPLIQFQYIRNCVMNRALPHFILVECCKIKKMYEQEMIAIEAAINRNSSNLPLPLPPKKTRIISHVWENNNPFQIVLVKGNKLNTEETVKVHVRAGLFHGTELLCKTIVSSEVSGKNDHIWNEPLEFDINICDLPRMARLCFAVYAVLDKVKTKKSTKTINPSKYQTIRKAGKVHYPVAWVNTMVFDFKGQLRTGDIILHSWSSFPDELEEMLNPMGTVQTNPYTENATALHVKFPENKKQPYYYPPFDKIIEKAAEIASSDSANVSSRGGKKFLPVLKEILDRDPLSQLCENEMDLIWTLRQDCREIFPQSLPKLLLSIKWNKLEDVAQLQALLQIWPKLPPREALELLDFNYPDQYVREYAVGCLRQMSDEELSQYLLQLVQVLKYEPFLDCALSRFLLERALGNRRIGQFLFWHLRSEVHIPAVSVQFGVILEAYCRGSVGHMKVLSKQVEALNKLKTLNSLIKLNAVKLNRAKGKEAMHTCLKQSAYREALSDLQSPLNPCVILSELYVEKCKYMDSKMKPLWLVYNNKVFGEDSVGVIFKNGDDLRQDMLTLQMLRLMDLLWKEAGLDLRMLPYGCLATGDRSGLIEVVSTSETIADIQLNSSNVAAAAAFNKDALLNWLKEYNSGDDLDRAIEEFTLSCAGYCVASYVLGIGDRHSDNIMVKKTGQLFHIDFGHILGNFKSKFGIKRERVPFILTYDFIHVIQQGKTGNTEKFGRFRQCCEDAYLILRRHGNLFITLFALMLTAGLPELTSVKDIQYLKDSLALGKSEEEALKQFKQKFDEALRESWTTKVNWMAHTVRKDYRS
T1 sequence (P27986 whole entry partner): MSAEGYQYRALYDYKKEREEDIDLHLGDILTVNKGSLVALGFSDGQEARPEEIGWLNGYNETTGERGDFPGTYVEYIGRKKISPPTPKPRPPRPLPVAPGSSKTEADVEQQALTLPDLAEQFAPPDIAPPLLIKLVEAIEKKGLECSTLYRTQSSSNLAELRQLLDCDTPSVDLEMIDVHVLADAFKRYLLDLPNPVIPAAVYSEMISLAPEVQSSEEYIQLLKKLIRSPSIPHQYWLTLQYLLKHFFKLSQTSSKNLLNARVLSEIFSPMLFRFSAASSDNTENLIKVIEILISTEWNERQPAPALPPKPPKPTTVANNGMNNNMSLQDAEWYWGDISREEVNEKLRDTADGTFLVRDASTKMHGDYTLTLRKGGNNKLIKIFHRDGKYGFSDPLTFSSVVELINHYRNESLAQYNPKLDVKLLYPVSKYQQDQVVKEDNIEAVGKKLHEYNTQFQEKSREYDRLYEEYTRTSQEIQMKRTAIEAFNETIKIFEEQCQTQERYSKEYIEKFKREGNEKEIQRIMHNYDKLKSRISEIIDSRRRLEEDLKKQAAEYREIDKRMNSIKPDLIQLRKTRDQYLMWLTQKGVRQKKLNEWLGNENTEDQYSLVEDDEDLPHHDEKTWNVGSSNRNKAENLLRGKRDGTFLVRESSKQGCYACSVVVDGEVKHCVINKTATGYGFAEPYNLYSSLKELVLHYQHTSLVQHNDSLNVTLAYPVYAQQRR
T1 sequence (P62873 whole entry): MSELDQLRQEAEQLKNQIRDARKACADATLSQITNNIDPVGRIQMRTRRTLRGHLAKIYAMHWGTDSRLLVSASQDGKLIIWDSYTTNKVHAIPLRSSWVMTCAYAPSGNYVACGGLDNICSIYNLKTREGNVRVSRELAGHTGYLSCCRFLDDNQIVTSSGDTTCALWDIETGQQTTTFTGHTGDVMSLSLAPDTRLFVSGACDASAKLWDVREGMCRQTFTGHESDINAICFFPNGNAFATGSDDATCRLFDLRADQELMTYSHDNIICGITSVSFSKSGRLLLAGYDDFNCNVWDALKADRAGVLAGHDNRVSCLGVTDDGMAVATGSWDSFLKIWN
T1 sequence (P59768 with tags, fused parts or gaps partner limits assumed): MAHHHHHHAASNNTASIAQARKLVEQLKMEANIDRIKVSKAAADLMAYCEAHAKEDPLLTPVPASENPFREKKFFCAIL
Method: A lipid micelle solution was prepared in accordance with a method described in Example 24 (2), to this was added the Gβ1γ2-His prepared in (1) at a concentration of 13.3 μg/ml, and the mixture was left on ice for 10 minutes. To 30 μl of the resultant solution were added 5 μl of a solution containing Compound 1 or 6 and 5 μl of a PI3-kinase β solution (5 μg/ml) successively. A 40 μM ATP solution (10 μl) containing ^32P-γ-ATP was added thereto, and a reaction was carried out at room temperature for 2 hours. The reaction was stopped by addition of 80 μl of 1N HCl, and the lipid was extracted with 300 μl of chloroform:methanol (1:1). The organic layer was washed with 80 μl of 1N HCl twice, 10 ml of a liquid scintillator (Hionic Fluor) was added thereto, and the […] was measured by a liquid scintillation counter.

Structure (SMILES) | EC50 (isolated adipocytes) | effect on PI3-kinase α activity [1] | Kd (HLF cell membrane) | PI3-kinase activity compared with the case without compound ([2]; 0.1 μM, 10 μM) | PI3-kinase activity compared with the case without compound ([2]; 100 μM)
O=C1NCC2=C1[C@@H](c1cccc3ccsc13)N(C(=O)CCc1ccccn1)[C@@H]1CCCC[C@H]1N2 [Compound 1] | 8 nM | only on the PI3-kinase β | 930 nM | clearly increased | 
O=C1NCC2=C1[C@@H](c1ccccc1)N(C(=O)CO)[C@@H]1CCCC[C@H]1N2 [Compound 6] | 4000 nM |  |  |  | clearly increased
